# Measured values from the NIST ThermoML archive (doi:10.1016/j.jct.2005.04.005).
# ± gives the expanded uncertainty stated by the source.
# Assays:
# [1] = mn = molality of the nth substance listed, in mol/kg; details: 101 kPa, Liquid
# [2] = 298.15 K; 101 kPa; Liquid
structure (smiles),measurement,setting,value
"C1COCCOCCOCCOCCOCCO1 [1,4,7,10,13,16-hexaoxacyclooctadecane] + ClC(Cl)(Cl)Cl",mass density,"[1]; 298.15 K, m1 = 0.0896",1569.55 ± 2.1 kg/m3
same,speed of sound,"[1]; 298.15 K, m1 = 0.0896",932.5 ± 1.7 m/s
same,mass density,"[1]; 298.15 K, m1 = 0.1666",1557.54 ± 2.1 kg/m3
same,speed of sound,"[1]; 298.15 K, m1 = 0.1666",941.9 ± 1.7 m/s
same,mass density,"[1]; 298.15 K, m1 = 0.3643",1529.41 ± 2 kg/m3
same,speed of sound,"[1]; 298.15 K, m1 = 0.3643",965.4 ± 1.8 m/s
same,mass density,"[1]; 298.15 K, m1 = 0.5719",1503.47 ± 1.9 kg/m3
same,speed of sound,"[1]; 298.15 K, m1 = 0.5719",989.2 ± 1.8 m/s
same,mass density,"[1]; 298.15 K, m1 = 0.8185",1476.37 ± 1.8 kg/m3
same,speed of sound,"[1]; 298.15 K, m1 = 0.8185",1015.6 ± 1.8 m/s
same,mass density,"[1]; 298.15 K, m1 = 1.013",1457.02 ± 1.8 kg/m3
same,speed of sound,"[1]; 298.15 K, m1 = 1.013",1034.2 ± 1.8 m/s
ClC(Cl)(Cl)Cl [tetrachloromethane],mass density,[2],1584.35 ± 2.2 kg/m3
same,speed of sound,[2],921.5 ± 1.7 m/s
O [water] + C1COCCOCCOCCOCCOCCO1,mass density,"[1]; 295.15 K, m2 = 0",997.773 ± 0.6 kg/m3
same,mass density,"[1]; 297.15 K, m2 = 0",997.299 ± 0.6 kg/m3
same,mass density,"[1]; 299.15 K, m2 = 0",996.786 ± 0.6 kg/m3
same,mass density,"[1]; 301.15 K, m2 = 0",996.236 ± 0.61 kg/m3
ClC(Cl)(Cl)Cl [tetrachloromethane] + C1COCCOCCOCCOCCOCCO1,mass density,"[1]; 298.15 K, m2 = 0",1584.35 ± 2.2 kg/m3
same,speed of sound,"[1]; 298.15 K, m2 = 0",921.5 ± 1.7 m/s
